{"source": "patent US20020044948A1", "about": "“Methods and compositions for co-stimulation of immunological responses to peptide antigens” (priority 2000, published 2002)", "test_system": "E7 peptide-pulsed EL4 cells", "assay": "Cytotoxic lymphocyte (4-hour 51Cr-release) assay on spleen cells of immunized mice", "assay_type": "in vivo, C57BL/6 mice", "conditions": "C57BL/6 (B6) (H-2b) mice", "method": "A peptide antigen formulation for use within the present example was prepared in an emulsion by a two-syringe system containing 1:1 incomplete Freund's Adjuvant with 100 μg HPV16 E7 peptide (49-57), 20 μg PCLUS-6.1 helper epitope (see, U.S. Pat. No. 5,939,074; U.S. Pat. No. 5,976,541; U.S. Pat. No. 5,030,449; U.S. Pat. No. 5,081,226; U.S. Pat. No. 5,932,218; U.S. patent application Ser. No. 08/060988, filed May 14, 1993, corresponding to EP 0 710 572 Bi; WO 94/26785; and\nU.S. patent application Ser. No. 09/455,076, each incorporated herein by reference), 50,000 U IL-2, 10X PBS and double distilled water. The B7-1 expressing DNA plasmid (400 μg) was prepared in 100 μl water. […]\nProcedures to measure CTL activity are well known and are described elsewhere (see, e.g. Chen et al., Cell 71:1093-1102, 1992). […] Supernatants were harvested and counted using a gamma counter. The percentage of specific 51 Cr-release was calculated as follows: 100 X (experimental release−spontaneous release)/(maximum release−spontaneous release). Spontaneous release was determined from target cells incubated without effector cells; maximum release was determined from target cells incubated in the presence of 1% Triton X-100."}
{"substance": "HPV16 E7 peptide(49-57): H2Db binding antigenic peptide of human papilloma virus 16 E7 protein, residues 49-57 (RAHYNIVTF; UniProt P03129 49-57, looked up, fragment)", "values": [{"measurement": "Immunogenicity of the peptide (in words)", "value": "immunogenic"}]}
